Measurements as given in US8222240B2, “Use of substituted cyclopropane acid derivatives for producing drugs for use in the treatment of metabolic syndrome” (Sanofi-Aventis Deutschland GmbH, priority 2004, dated 2012).

What was measured:
[1] = molecular target: T1, GPCR HM74A (niacin receptor) (Homo sapiens, UniProt Q8TDS4); assay: FLIPR in vitro functional assay, intracellular Ca2+ in recombinant HEK293 cells expressing HM74A and hybrid G-protein; assay type: cell-based; settings: relative to 1 μM niacin = 100%
T1 construct: expressed in transfected cells; host or cells: HEK293
Method: in vitro functional assays with recombinant cells; function-testing assays were carried out by means of the FLIPR technique (“Fluorescence Imaging Plate Reader”, Molecular Devices Corp.).
For the investigations, cells were seeded into 96-well microtiter plates (60 000 cells/well) and allowed to grow over night. The medium was removed and the cells were incubated in buffer which contained the fluorescent dye Fluo-4. After this loading with dye, the cells were washed, test substance was added, and changes in the intracellular Ca^2+ concentration were measured in the FLIPR apparatus.

lipolysis = assay: Inhibition of lipolysis on the whole animal (plasma FFA, glycerol, triglycerides after p.o. administration); assay type: in vivo, Wistar rats; set-up: FFA / Glycerol / Triglyceride: unit not given here; settings: for FFA / Glycerol / Triglyceride: 3 mg/kg po, Wistar rats
Method: The effect was tested on the whole animal (mouse, rat, hamster or dog), after a fasting period (e.g. of about 16 hours the substance is administered (e.g. p.o., iv., i.p., s.c.) and, with or without additional stimulation of endogenous lipolysis (e.g. by a bolus injection of 2 mg/kg i.p. isoprenaline), the effect of the test substance on lipolysis was determined on the basis of the liberated free fatty acids (FFA), glycerol and triglycerides by obtaining a blood sample (e.g. by retroorbital blood sampling) e.g. 15 min, 30, 60, 120 etc minutes after p.o. administration, and analyzing by standard methods of clinical chemistry (e.g. L. Thomas: Labor und Diagnose, 2nd edition, Medizinische Verlagsgesellschaft, Marburg/L. 1984; ISBN 3-921320-10-9)). The inhibition of lipolysis by the inhibitors is analyzed by comparing with the rate of lipolysis in correspondingly treated control animals.

T1 sequence (Q8TDS4 whole entry): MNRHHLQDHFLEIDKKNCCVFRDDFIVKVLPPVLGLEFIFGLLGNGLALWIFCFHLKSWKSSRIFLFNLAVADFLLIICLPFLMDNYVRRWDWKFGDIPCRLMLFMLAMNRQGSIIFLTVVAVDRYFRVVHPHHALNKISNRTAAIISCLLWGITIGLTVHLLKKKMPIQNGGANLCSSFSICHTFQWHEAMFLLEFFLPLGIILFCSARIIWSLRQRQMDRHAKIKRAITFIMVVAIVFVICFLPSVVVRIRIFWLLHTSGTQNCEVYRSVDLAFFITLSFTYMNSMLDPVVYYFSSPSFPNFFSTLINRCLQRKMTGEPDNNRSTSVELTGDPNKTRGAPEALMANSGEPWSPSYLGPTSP

For `COC(=O)[C@@H]1C[C@H]1C(=O)O` (racemic) [Example 7, 1RS-Methoxycarbonyl-2RS-hydroxycarbonyl-cyclopropane], the EC50 [1] was 630 nM.
Compound `COC(=O)[C@H]1[C@H](C(=O)O)C1(C)C` (racemic) [Example 9, 1RS-Methoxycarbonyl-2RS-hydroxycarbonyl-3,3-dimethyl-cyclopropane] has an EC50 [1] of over 30000 nM.
In the case of `CCOC(=O)[C@@H]1C[C@H]1C(=O)O` (racemic) [Example 10, 1RS-Ethoxycarbonyl-2RS-hydroxycarbonyl-cyclopropane], the EC50 [1] is reported as 1480 nM.
For `CCCOC(=O)[C@@H]1C[C@H]1C(=O)O` (racemic) [Example 11, 1RS-Propoxycarbonyl-2RS-hydroxycarbonyl-cyclopropane], the EC50 [1] was 2160 nM.
With `CCCCOC(=O)[C@@H]1C[C@H]1C(=O)O` (racemic) [Example 12, 1RS-Butoxycarbonyl-2RS-hydroxycarbonyl-cyclopropane] the EC50 [1] was 670 nM.
Compound `CCCCCOC(=O)[C@@H]1C[C@H]1C(=O)O` (racemic) [Example 13, 1RS-Pentoxycarbonyl-2RS-hydroxycarbonyl-cyclopropane] has an EC50 [1] of 1610 nM.
Compound `CC(C)OC(=O)[C@@H]1C[C@H]1C(=O)O` (racemic) [Example 14, 1RS-iso-Propoxycarbonyl-2RS-hydroxycarbonyl-cyclopropane] has an EC50 [1] of over 30000 nM.
`O=C(O)[C@@H]1C[C@H]1C(=O)OCC1CCCCC1` (racemic) [Example 15, 1RS-Cyclohexyl-methyloxycarbonyl-2RS-hydroxycarbonyl-cyclopropane] showed an EC50 [1] of over 30000 nM.
Compound `CC(C)COC(=O)[C@@H]1C[C@H]1C(=O)O` (racemic) [Example 16, 1RS-isobutoxycarbonyl-2RS-hydroxycarbonyl-cyclopropane] has an EC50 [1] of over 30000 nM.
With `C=CCOC(=O)[C@@H]1C[C@H]1C(=O)O` (racemic) [Example 17, 1RS-allyloxycarbonyl-2RS-hydroxycarbonyl-cyclopropane] the EC50 [1] was 2830 nM.
With `C#CCOC(=O)[C@@H]1C[C@H]1C(=O)O` (racemic) [Example 18, 1RS-Propargyloxycarbonyl-2RS-hydroxycarbonyl-cyclopropane] the EC50 [1] was 1510 nM.
`CC#CCOC(=O)[C@@H]1C[C@H]1C(=O)O` (racemic) [Example 19, 1RS-Butinyloxycarbonyl-2RS-hydroxycarbonyl-cyclopropane] showed an EC50 [1] of 1630 nM.
For `CC(C)(C)OC(=O)[C@H]1[C@H](C(=O)O)C1(C)C` (racemic) [Example 20, 1RS-tertButoxycarbonyl-2RS-hydroxycarbonyl-3,3-dimethyl-cyclopropane], the EC50 [1] was over 30000 nM.
In the case of `COC(=O)[C@H]1C[C@@H]1C(=O)OC` (relative stereo) [Example 5, Dimethyl trans-1,2-cyclopropanedicarboxylate], the EC50 [1] is reported as over 30000 nM, the FFA (lipolysis; Time 0) is reported as 0.47 and the Glycerol (lipolysis; Time 0) is reported as 87. The Triglyceride (lipolysis; Time 0) was 0.45, the FFA (lipolysis; Time 15) was 0.17 and the Glycerol (lipolysis; Time 15) was 39. It also gave a Triglyceride (lipolysis; Time 15) of 0.45, an FFA (lipolysis; Time 30) of 0.13 and a Glycerol (lipolysis; Time 30) of 33. For the same compound, the Triglyceride (lipolysis; Time 30) was 0.26, the FFA (lipolysis; Time 60) was 0.11 and the Glycerol (lipolysis; Time 60) was 28. The Triglyceride (lipolysis; Time 60) was 0.15, the FFA (lipolysis; Time 120) was 0.25 and the Glycerol (lipolysis; Time 120) was 57. For the same compound, the Triglyceride (lipolysis; Time 120) was 0.13 and the “lipolysis (reduction in free fatty acids (FFA), glycerol and triglycerides)” value (lipolysis; doses of from 0.3 to 30 mg/kg po) was “distinctly reduced”.
Work on `COC(=O)[C@H]1C[C@]1(C)C(=O)OC` (relative stereo) [Example 6, Dimethyl 1-methyl-trans-cyclopropane-1,2-dicarboxylate] yielded an EC50 [1] of over 30000 nM.
`CCOC(=O)[C@@H]1C[C@H]1C(=O)OCC` (relative stereo) [Example 8, Diethyl trans-1,2-cyclopropanedicarboxylate] gave an EC50 [1] of over 30000 nM.
For `COC(=O)[C@@H]1C[C@H]1C(=O)O` [Example 1, 1R-Methoxycarbonyl-2R-hydroxycarbonyl-cyclopropane], the EC50 [1] was 70 nM.
In the case of `COC(=O)[C@@H]1C[C@H]1C(=O)O` [Example 2, 1R-Methoxycarbonyl-2R-hydroxycarbonyl-cyclopropane], the EC50 [1] is reported as 130 nM.
Compound `COC(=O)[C@@H]1C[C@H]1C(=O)O` [Example 3, 1R-Methoxycarbonyl-2R-hydroxycarbonyl-cyclopropane] has an EC50 [1] of 190 nM.
`COC(=O)[C@H]1C[C@H]1C(=O)OC` [Example 4, Dimethyl cis-1,2-cyclopropanedicarboxylate] gave an EC50 [1] of over 30000 nM.
